Assay results published in patent US6387397B1, “Polymerized liposomes targeted to M cells and useful for oral or mucosal drug delivery” (Massachusetts Institute of Technology, priority 1997, dated 2002).

Experiment: In vivo oral insulin delivery; blood glucose level
Set-up: species or system Balb/C mice
Settings: mice, single oral dose, 1 to 3.5 hours
Procedure: Balb/C mice of female sex were fasted for 12 hours before experiment. Each mouse wag savaged 200 μL of each preparation as described in Table 9.3. Food was restored immediately after administration. Blood samples for glucose determination was drawn from mouse tail vein under methoxyflurane anesthesia. Samples were drawn right before the administration (0 hour), as well as at 1, 2, 3 and 3.5 hours post administration of each preparation. Blood glucose level was measured using a One Touch® Profile Diabetes Tracking system (Lifescan, Milpitas, Calif.) with One Touch® Test strips, by applying blood to form a round drop which completely covered the test spot on the test strip. Readings (in mg/dL) were obtained from the meter indicating the blood glucose level detected.
Blood glucose level at zero hour was taken at 100 percent. Blood glucose levels after the oral administration were normalized by the level at zero hour, and the results were plotted in FIG. 9. […] This was due to the degradation of the unprotected peptide in the gastrointestinal tract by the digestive enzymes. […] This is consistent with the fact that unpolymerized liposomes are not stable in the gastrointestinal tract, where they are dissolved by the biological detergents. The dissolution results in the exposure of liposomal contents and therefore the loss of liposome protective functions. […]

Q: With “insulin in solution: human insulin (regular) administered orally in solution” as the substance, how does the “change in blood glucose level after oral administration” value read?
A: did not result in any significant change
